Test results taken from patent US10023593B2, “ALK kinase inhibitor, and preparation method and uses thereof” (BEIJING PEARL BIOTECHNOLOGY LIMITED LIABILITY COMPANY, priority 2014, dated 2018).

Tests used:
[1] = target: T1, L1196M mutant ALK kinase (Homo sapiens, UniProt Q9UM73, L1196M); test: HTRF KinEASE-TK assay, inhibitory activity on L1196M mutant ALK kinase; type: biochemical; details: L1196M mutant ALK 1 ng/μl, substrate 1 μM, ATP 5 μM, 30° C. 35 minutes, read-out: Inhibition on ALK kinases (L1196M mutant), IC50
T1 construct: purchased Sino-US Crown Bioscience, Inc. batch number ALKm_20110923
T1 sequence (Q9UM73 19-1620 L1196M): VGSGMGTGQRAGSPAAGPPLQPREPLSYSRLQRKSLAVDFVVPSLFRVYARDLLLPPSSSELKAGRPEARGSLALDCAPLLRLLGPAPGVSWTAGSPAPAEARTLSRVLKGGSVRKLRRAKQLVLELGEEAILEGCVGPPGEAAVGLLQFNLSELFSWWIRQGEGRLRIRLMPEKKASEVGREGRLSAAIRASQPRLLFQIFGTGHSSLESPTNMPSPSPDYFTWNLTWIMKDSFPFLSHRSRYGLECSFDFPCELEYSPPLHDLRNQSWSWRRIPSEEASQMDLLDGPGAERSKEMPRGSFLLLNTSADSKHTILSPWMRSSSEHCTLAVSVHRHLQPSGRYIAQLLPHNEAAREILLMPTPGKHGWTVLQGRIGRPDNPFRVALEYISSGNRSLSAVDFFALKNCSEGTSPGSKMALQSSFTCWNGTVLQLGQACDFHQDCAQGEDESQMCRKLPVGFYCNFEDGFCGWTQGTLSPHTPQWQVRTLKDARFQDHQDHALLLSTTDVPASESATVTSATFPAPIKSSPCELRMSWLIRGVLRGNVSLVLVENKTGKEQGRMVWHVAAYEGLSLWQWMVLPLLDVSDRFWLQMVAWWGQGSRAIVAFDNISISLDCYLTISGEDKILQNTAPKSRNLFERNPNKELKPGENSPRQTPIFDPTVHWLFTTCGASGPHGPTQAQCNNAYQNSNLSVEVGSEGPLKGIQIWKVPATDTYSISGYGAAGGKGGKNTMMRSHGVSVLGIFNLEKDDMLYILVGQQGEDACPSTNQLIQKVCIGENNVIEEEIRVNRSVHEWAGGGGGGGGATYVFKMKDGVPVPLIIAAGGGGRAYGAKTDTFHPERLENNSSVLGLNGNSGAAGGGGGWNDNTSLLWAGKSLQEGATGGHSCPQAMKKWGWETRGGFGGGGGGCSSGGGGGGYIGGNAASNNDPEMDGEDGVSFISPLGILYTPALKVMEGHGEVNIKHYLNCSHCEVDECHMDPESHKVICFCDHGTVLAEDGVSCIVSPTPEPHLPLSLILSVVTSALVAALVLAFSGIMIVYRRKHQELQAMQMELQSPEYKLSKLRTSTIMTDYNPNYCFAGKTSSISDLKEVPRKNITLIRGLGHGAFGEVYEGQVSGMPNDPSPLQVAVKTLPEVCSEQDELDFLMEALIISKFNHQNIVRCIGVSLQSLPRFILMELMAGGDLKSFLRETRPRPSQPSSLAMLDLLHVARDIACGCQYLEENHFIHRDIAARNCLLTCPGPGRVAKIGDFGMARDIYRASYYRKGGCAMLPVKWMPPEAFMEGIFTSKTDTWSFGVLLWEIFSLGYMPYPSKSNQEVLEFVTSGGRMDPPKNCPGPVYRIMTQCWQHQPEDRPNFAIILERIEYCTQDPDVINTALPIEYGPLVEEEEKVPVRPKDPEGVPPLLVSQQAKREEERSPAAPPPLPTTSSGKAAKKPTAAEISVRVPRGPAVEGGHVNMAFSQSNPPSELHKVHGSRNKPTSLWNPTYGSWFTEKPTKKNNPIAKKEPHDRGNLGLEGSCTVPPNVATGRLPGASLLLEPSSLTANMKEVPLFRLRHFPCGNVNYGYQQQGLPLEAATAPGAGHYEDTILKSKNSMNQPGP
Description: 2. Inhibitory Activities of the Compounds of the Present Invention on L1196M Mutant ALK Kinases
? experimental method ? HTRF KinEASE™-TK Assay kit from Cisbio company was used to detect inhibitory activities of the compounds on L1196M mutant ALK kinases.
? instrument ? Envision 2104 plate reader from PerKinElmer company.
? experiment material ? HTRF KinEASE™-TK Assay Kit (Cisbio company, catalog No. 62TK0PEC); L1196M mutant ALK kinase (produced by Sino-US Crown Bioscience, Inc., batch number ALKm_20110923); DTT (Gibco BRL company, catalog No. 15508-012); MgCl2 (Sigma Aldrich company, catalog No. M-2670); ATP (Sigma Aldrich company, catalog No. A-7699, batch number 051M7014V); DMSO (AMRESCO company, catalog No. 0231); EDTA (AMRESCO company, catalog No. 0105); 96 wells plates (for diluting compounds) (CITOTEST company, catalog No. Ref36020096D); OptiPlate™-384 (White), PerkinElmer company, catalog No. P12-004)
? experimental condition ? Compounds (the final concentration of DMSO was 1%), the reaction substrate (the final concentration was 1 μM), ATP (the final concentration was 5 μM), and L1196M mutant ALK kinases (the final concentration was 1 ng/μl) were mixed respectively in a final volume of 10 μl reaction system (containing 5 mM MgCl2, 1× Kinase buffer, and 1 mM DTT). The mixture was reacted at 30° C. for 35 minutes after shaking for 30 seconds. After completion of the reaction, each well was added with 5 μl Sa-XL665 and 5 μl TK Antibody-Eu(K), and placed in the dark for 60 minutes to end the reaction after uniform mixing. The data was read from PerkinElmer EnVision plate reader ([…]), the 665/615 ratio was calculated, and the data was analyzed.
? tested samples ? Compounds from the examples.
? data analysis ? Minimum 665/615 ratio (Rmin, 665/615 ratio under the condition that 10.4 μM positive control drug LDK-378 was added)
Maximum 665/615 ratio (Rmax, 665/615 ratio under the condition that no compound was added)
Tested 665/615 ratio (Rcompound, 665/615 ratio under the condition that a given concentration of compound was added) Inhibition rate (%)=[1−(Rcompound−Rmin)/(Rmax−Rmin)]×100
(§1) ? data processing ? IC50 of compounds was calculated by using XLfit program in Excel.

[2] = test system: Karpas-299 cell line; test: CellTiter-Glo cell proliferation inhibition on Karpas-299 cell line; type: cell-based; details: Homo sapiens, 96 h, Karpas-299 cells, 5000 cells/well, 4 days drug treatment
Procedure: 4. Cell Proliferation Inhibitory Activities of the Compounds of the Present Invention on Karpas-299 Cell Line
? experimental method ? CellTiter-Glo® Luminescent Cell Viability Assay kit from Promega company was used to detect cell proliferation inhibitory activities of the compounds on Karpas-299 cell line.
? instrument ? Envision 2104 plate reader from PerKinElmer company; Vi-Cell XR cell counter from Beckman Counter company; MCO-18AIC CO2 incubator from SANYO company.
? experiment material ? CellTiter-Glo® Luminescent Cell Viability Assay Kit (Promega company, catalog No. G7573); Karpas-299 cell line (DSMZ, catalog No. ACC31); RPMI-1640 medium (HyClone company, catalog No. SH30809.01B); fetal bovine serum (FBS) (Gibco company, catalog No. 10099-141); PBS (HyClone company, catalog No. SH30256.01B); 96 wells cell culture plate (Corning company, catalog No. 3610); DMSO (AMRESCO company, catalog No. 0231); 96 wells plates (for diluting compounds) (CITOTEST company, catalog No. Ref36020096D);
? experimental condition ? Karpas-299 cells in exponential growth phase were collected and viable cells were counted by Vi-Cell XR cell counter. Cell suspension was adjusted to 62500 cells/ml with culture medium (RPMI-1640+10% FBS). 80 μl cell suspension was added into each well of 96 wells cell culture plate so that so that the final cell number of Karpas-299 cells was 5000 cells/well. The cells were cultivated in an incubator with an atmosphere of 37° C., 5% CO2 and 95% humidity for 2 hours and then each well was added with 20 μl compounds in RPMI-1640 medium solution (the final concentration of DMSO was 0.5%). 4 days after drug treatment, each well was added with 50 μl CellTiter-Glo solution which was previously thawed and equilibrated to room temperature, and mixed for 2 minutes with microplate shaker. After placing at room temperature for 10 minutes, luminescence reading value was measured with PerkinElmer Envision 2104 plate reader and the data was analyzed.
? tested samples ? Compounds of the examples.
Luminescence value of DMSO solvent control (Vvehicle control, which is the mean luminescence value from DMSO solvent control group)
Tested luminescence value (Vsample, which is the luminescence value from given concentration of compounds group) Inhibition rate (%)=(1−Vsample/Vvehicle control)×100
as §1

IC50 [1] [nM] | IC50 [2] [nM] | Compound
13 | 60 | Cc1cc(Nc2ncc(Cl)c(Nc3cn(C)nc3S(=O)(=O)C(C)C)n2)c(OC(C)C)cc1C1CNC1 [Final product 4]
12 | 37 | Cc1cc(Nc2ncc(Cl)c(Nc3cn(C4CC4)nc3S(=O)(=O)C(C)C)n2)c(OC(C)C)cc1C1CCNCC1 [Final product 5]
7 | 24 | Cc1cc(Nc2ncc(Cl)c(Nc3cn(C)nc3S(=O)(=O)CC(C)C)n2)c(OC(C)C)cc1C1CCNCC1 [Final product 6]
12 | 21 | CCC(C)S(=O)(=O)c1nn(C)cc1Nc1nc(Nc2cc(C)c(C3CCNCC3)cc2OC(C)C)ncc1Cl (stereo not shown) [Final product 7]
10 | 67 | Cc1cc(Nc2ncc(Cl)c(Nc3cn(C)nc3S(=O)(=O)C(C)C)n2)c(OC(CF)CF)cc1C1CCNCC1 [Final product 8]
35 | 119 | CC(C)S(=O)(=O)c1nn(C)cc1Nc1nc(Nc2ccc(C3CCNCC3)cc2OC(F)(F)F)ncc1Cl [Final product 9]
13 | 20 | Cc1cc(Nc2ncc(Cl)c(Nc3cn(C)nc3S(=O)(=O)C(C)C)n2)c(OC(F)(F)F)cc1C1CCNCC1 [Final product 10]
39 | 61 | Cc1cc(Nc2ncc(Cl)c(Nc3cn(C)nc3S(=O)(=O)C(C)C)n2)c(C(F)(F)F)cc1C1CCNCC1 [Final product 11]
17 | 43 | Cc1cc(Nc2ncc(Cl)c(Nc3cn(C)nc3S(=O)(=O)C(C)C)n2)c(OCC2CC2)cc1C1CCNCC1 [Final product 12]
7 | 7 | CC(C)S(=O)(=O)c1nn(C)cc1Nc1nc(Nc2ccc(C3CCNCC3)cc2OC2CC2)ncc1Cl [Final product 13]
6 | 19 | CC(C)S(=O)(=O)c1nn(C)cc1Nc1nc(Nc2ccc(C3=CCNCC3)cc2OC2CC2)ncc1Cl [Final product 14]
5 | 9 | CC(C)S(=O)(=O)c1nn(C)cc1Nc1nc(Nc2ccc(C3CCNC3)cc2OC2CC2)ncc1Cl (stereo not shown) [Final product 15]
7 | 8 | CC(C)S(=O)(=O)c1nn(C2CC2)cc1Nc1nc(Nc2ccc(C3CCNCC3)cc2OC2CC2)ncc1Cl [Final product 16]
13 | 36 | CC(C)CS(=O)(=O)c1nn(C)cc1Nc1nc(Nc2ccc(C3CCNCC3)cc2OC2CC2)ncc1Cl [Final product 17]
4 | 28 | CC(C)CS(=O)(=O)c1nn(C)cc1Nc1nc(Nc2ccc(C3CCNC3)cc2OC2CC2)ncc1Cl (stereo not shown) [Final product 18]
34 | 56 | CC(C)S(=O)(=O)c1nn(C)cc1Nc1nc(Nc2cc(F)c(C3CCNC3)cc2OC2CC2)ncc1Cl (stereo not shown) [Final product 20]
2 | 10 | CC(C)S(=O)(=O)c1nn(C2CC2)cc1Nc1nc(Nc2cc(F)c(C3CCNCC3)cc2OC2CC2)ncc1Cl [Final product 21]
12 | 14 | CC(C)S(=O)(=O)c1nn(C)cc1Nc1nc(Nc2cc(Cl)c(C3CCNCC3)cc2OC2CC2)ncc1Cl [Final product 22]
8 | 38 | CC(C)S(=O)(=O)c1nn(C2CC2)cc1Nc1nc(Nc2cc(Cl)c(C3CCNCC3)cc2OC2CC2)ncc1Cl [Final product 23]
4 | 9 | Cc1cc(Nc2ncc(Cl)c(Nc3cn(C)nc3S(=O)(=O)C(C)C)n2)c(OC2CC2)cc1C1CCNCC1 [Final product 24]
5 | 12 | Cc1cc(Nc2ncc(Cl)c(Nc3cn(C)nc3S(=O)(=O)C(C)C)n2)c(OC2CC2)cc1C1=CCNCC1 [Final product 25]
6 | 16 | Cc1cc(Nc2ncc(Cl)c(Nc3cn(C)nc3S(=O)(=O)C(C)C)n2)c(OC2CC2)cc1C1CCNC1 (stereo not shown) [Final product 26]
6 | 19 | Cc1cc(Nc2ncc(Cl)c(Nc3cn(C4CC4)nc3S(=O)(=O)C(C)C)n2)c(OC2CC2)cc1C1CCNCC1 [Final product 27]
